Measurements from US20240158446A1, “CYCLIC COMPOUND HAVING SELECTIVE INHIBITORY ACTION ON KRAS OVER HRAS AND NRAS” (CHUGAI SEIYAKU KABUSHIKI KAISHA, priority 2021, published 2024).
*1 amine or outer side, *2 acyl side, *3 side chain or, on linkers, in order; H or OH if unused. Where a SMILES comes first, the peptide text is derived from it. Bridges are numbered along the chain shown (N, C = ends). [ ]: non-standard residue; d: D form. The star is where a group is joined. X47 = CC(C)(C)CCN([C@@H](Cc1ccc(C(F)(F)F)cc1)C(=O)[*:2])[*:1]; hPhe(3-Cl-4-CF3) = N[C@@H](CCc1ccc(C(F)(F)F)c(Cl)c1)C(=O)O; X34 = Cc1ccc(C[C@@H](C(=O)[*:2])N(CCC(C)(C)C)[*:1])cc1; NPrPhe(4-CF3) = CCCN[C@@H](Cc1ccc(C(F)(F)F)cc1)C(=O)O; NEtPhe(4-CF3) = CCN[C@@H](Cc1ccc(C(F)(F)F)cc1)C(=O)O; X33 = C[C@@H]1CN([*:1])[C@@H]1C(=O)[*:2]; NMeGly(cPent) = CN[C@H](C(=O)O)C1CCCC1; X44 = CC1(C)CN([*:1])[C@@H]1C(=O)[*:2]; Aze(3S-Me) = C[C@H]1CN[C@@H]1C(=O)O; NMeF = CN[C@@H](Cc1ccccc1)C(=O)O; NMeD = CN[C@@H](CC(=O)O)C(=O)O; NMeL = CN[C@@H](CC(C)C)C(=O)O; hPip = O=C(O)[C@@H]1CCCCCN1; Pip = O=C(O)[C@@H]1CCCCN1; Morpholide = C1CN(*)CCO1; NMeA = CN[C@@H](C)C(=O)O; Ac5c = NC1(C(=O)O)CCCC1; Aze = O=C(O)[C@@H]1CCN1; Ac3c = NC1(C(=O)O)CC1; Aib = CC(C)(N)C(=O)O; NEtG = CCNCC(=O)O; Sar = CNCC(=O)O

How the values were obtained:
[1] = target: GDP-bound NRAS wild-type protein (Homo sapiens, UniProt P01111); assay: Binding to NRAS by surface plasmon resonance (SPR), Single Cycle Kinetics; details: SPR, GDP-bound NRAS wild-type protein vs GDP-bound KRAS wild-type protein
[2] = test system: human lung cancer strain NCI-H441;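 note: cell proliferation inhibition after four days measured by CellTiter-Glo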
[3] = target: GDP-bound HRAS wild-type protein (Homo sapiens, UniProt P01112); assay: Binding to HRAS by surface plasmon resonance (SPR), Single Cycle Kinetics; details: SPR, GDP-bound HRAS wild-type protein vs GDP-bound KRAS wild-type protein
GDP-bound HRAS wild-type protein, sequence (P01112 whole entry): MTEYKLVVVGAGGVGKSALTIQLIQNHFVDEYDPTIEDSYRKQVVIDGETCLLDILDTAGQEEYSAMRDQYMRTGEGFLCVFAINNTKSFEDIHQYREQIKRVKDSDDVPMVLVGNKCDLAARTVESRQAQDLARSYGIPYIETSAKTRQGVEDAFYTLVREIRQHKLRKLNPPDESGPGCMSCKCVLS

GDP-bound NRAS wild-type protein, sequence (P01111 whole entry): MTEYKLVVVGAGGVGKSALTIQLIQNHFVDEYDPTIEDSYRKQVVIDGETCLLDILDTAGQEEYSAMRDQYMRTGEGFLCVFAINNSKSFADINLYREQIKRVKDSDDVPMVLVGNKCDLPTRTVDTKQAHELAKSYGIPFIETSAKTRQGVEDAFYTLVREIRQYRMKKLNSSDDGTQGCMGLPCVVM

Row | IC50 [2] [nM] | SMILES | NRAS/KRAS (ratio of KD value for NRAS to KD value for KRAS) [1] | HRAS/KRAS (ratio of KD value for HRAS to KD value for KRAS) [3]
1 | 24 | CC[C@H](C)[C@@H]1NC(=O)[C@H](CC(C)C)N(C)C(=O)C[C@@H](C(=O)N2CCOCC2)N(C)C(=O)[C@H](C2CCCC2)N(C)C(=O)C2(CCCC2)NC(=O)[C@@H]2CCCN2C(=O)[C@H](CCc2ccc(C(F)(F)F)c(Cl)c2)NC(=O)CN(C)C(=O)[C@H](Cc2ccc(C)cc2)N(CCC(C)(C)C)C(=O)[C@@H]2CCN2C(=O)[C@H](C)N(C)C1=O [PP0087] ([NMeL]I[NMeA][Aze][X34][Sar][hPhe(3-Cl-4-CF3)]P[Ac5c][NMeGly(cPent)][NMeD]-Morpholide; lactam N-11) | C (A compound having a KD ratio of 0.1 or more and less than 3 is denoted as C) | C (A compound having a KD ratio of 0.1 or more and less than 3 is denoted as C)
2 | 7.1 | CC[C@H](C)[C@@H]1NC(=O)[C@H](CC(C)C)N(C)C(=O)C[C@@H](C(=O)N2CCOCC2)N(C)C(=O)[C@H](C2CCCC2)N(C)C(=O)C2(CCCC2)NC(=O)[C@@H]2CCCN2C(=O)[C@H](CCc2ccc(C(F)(F)F)c(Cl)c2)NC(=O)CN(C)C(=O)[C@H](Cc2ccc(C(F)(F)F)cc2)N(CCC(C)(C)C)C(=O)[C@@H]2CCN2C(=O)[C@H](C)N(C)C1=O [PP0113] ([NMeL]I[NMeA][Aze][X47][Sar][hPhe(3-Cl-4-CF3)]P[Ac5c][NMeGly(cPent)][NMeD]-Morpholide; lactam N-11) | C (A compound having a KD ratio of 0.1 or more and less than 3 is denoted as C) | B (a compound having 3 or more and less than 10 is denoted as B)
3 | 15.4 | CCCN1C(=O)CN(C)C(=O)[C@@H]2CCN2C(=O)[C@H]([C@@H](C)CC)NC(=O)[C@H](CC(C)C)N(C)C(=O)C[C@@H](C(=O)N2CCOCC2)N(C)C(=O)[C@H](C2CCCC2)N(C)C(=O)C2(CCCC2)NC(=O)[C@@H]2CCCN2C(=O)[C@H](CCc2ccc(C(F)(F)F)c(Cl)c2)NC(=O)CN(C)C(=O)[C@@H]1Cc1ccc(C(F)(F)F)cc1 [PP0158] ([NMeL]I[Aze][Sar][NPrPhe(4-CF3)][Sar][hPhe(3-Cl-4-CF3)]P[Ac5c][NMeGly(cPent)][NMeD]-Morpholide; lactam N-11) | A (a compound having 10 or more and less than 20 is denoted as A) | B (a compound having 3 or more and less than 10 is denoted as B)
4 | 26.6 | CCCN1C(=O)[C@@H]2CCN2C(=O)[C@@H]2CCN2C(=O)[C@H]([C@@H](C)CC)NC(=O)[C@H](CC(C)C)N(C)C(=O)C[C@@H](C(=O)N2CCOCC2)N(C)C(=O)[C@H](C2CCCC2)N(C)C(=O)C2(CCCC2)NC(=O)[C@@H]2CCCN2C(=O)[C@H](CCc2ccc(C(F)(F)F)c(Cl)c2)NC(=O)CN(C)C(=O)[C@@H]1Cc1ccc(C(F)(F)F)cc1 [PP0168] ([NMeL]I[Aze][Aze][NPrPhe(4-CF3)][Sar][hPhe(3-Cl-4-CF3)]P[Ac5c][NMeGly(cPent)][NMeD]-Morpholide; lactam N-11) | C (A compound having a KD ratio of 0.1 or more and less than 3 is denoted as C) | B (a compound having 3 or more and less than 10 is denoted as B)
5 | 569 | CCCN1C(=O)[C@@H]2CCN2C(=O)[C@H](Cc2ccccc2)N(C)C(=O)[C@H]([C@@H](C)CC)NC(=O)[C@H](CC(C)C)N(C)C(=O)C[C@@H](C(=O)N2CCOCC2)N(C)C(=O)[C@H](C2CCCC2)N(C)C(=O)C2(CCCC2)NC(=O)[C@@H]2CCCN2C(=O)[C@H](CCc2ccc(C(F)(F)F)c(Cl)c2)NC(=O)CN(C)C(=O)[C@@H]1Cc1ccc(C(F)(F)F)cc1 [PP0209] ([NMeL]I[NMeF][Aze][NPrPhe(4-CF3)][Sar][hPhe(3-Cl-4-CF3)]P[Ac5c][NMeGly(cPent)][NMeD]-Morpholide; lactam N-11) | C (A compound having a KD ratio of 0.1 or more and less than 3 is denoted as C) | C (A compound having a KD ratio of 0.1 or more and less than 3 is denoted as C)
6 | 49.9 | CC[C@H](C)[C@@H]1NC(=O)[C@H](CC(C)C)N(C)C(=O)C[C@@H](C(=O)N2CCOCC2)N(C)C(=O)[C@H](C2CCCC2)N(C)C(=O)C2(CC2)NC(=O)[C@@H]2CCCN2C(=O)[C@H](CCc2ccc(C(F)(F)F)c(Cl)c2)NC(=O)CN(C)C(=O)[C@H](Cc2ccc(C(F)(F)F)cc2)N(CC)C(=O)CN(C)C(=O)CN(C)C1=O [PP0234] ([NMeL]I[Sar][Sar][NEtPhe(4-CF3)][Sar][hPhe(3-Cl-4-CF3)]P[Ac3c][NMeGly(cPent)][NMeD]-Morpholide; lactam N-11) | B (a compound having 3 or more and less than 10 is denoted as B) | C (A compound having a KD ratio of 0.1 or more and less than 3 is denoted as C)
7 | 4.5 | CC[C@H](C)[C@@H]1NC(=O)[C@H](CC(C)C)N(C)C(=O)C[C@@H](C(=O)N2CCOCC2)N(C)C(=O)[C@H](C2CCCC2)N(C)C(=O)C(C)(C)NC(=O)[C@@H]2CCCN2C(=O)[C@H](CCc2ccc(C(F)(F)F)c(Cl)c2)NC(=O)CN(C)C(=O)[C@H](Cc2ccc(C(F)(F)F)cc2)N(CC)C(=O)CN(C)C(=O)CN(C)C1=O [PP0235] ([NMeL]I[Sar][Sar][NEtPhe(4-CF3)][Sar][hPhe(3-Cl-4-CF3)]P[Aib][NMeGly(cPent)][NMeD]-Morpholide; lactam N-11) | B (a compound having 3 or more and less than 10 is denoted as B) | C (A compound having a KD ratio of 0.1 or more and less than 3 is denoted as C)
8 | 30.8 | CCCN1C(=O)CN(C)C(=O)[C@@H]2[C@H](C)CN2C(=O)[C@H]([C@@H](C)CC)NC(=O)[C@H](CC(C)C)N(C)C(=O)C[C@@H](C(=O)N2CCOCC2)N(C)C(=O)[C@H](C2CCCC2)N(C)C(=O)C2(CCCC2)NC(=O)[C@@H]2CCCN2C(=O)[C@H](CCc2ccc(C(F)(F)F)c(Cl)c2)NC(=O)CN(C)C(=O)[C@@H]1Cc1ccc(C(F)(F)F)cc1 [PP0257] ([NMeL]I[X33][Sar][NPrPhe(4-CF3)][Sar][hPhe(3-Cl-4-CF3)]P[Ac5c][NMeGly(cPent)][NMeD]-Morpholide; lactam N-11) | B (a compound having 3 or more and less than 10 is denoted as B) | B (a compound having 3 or more and less than 10 is denoted as B)
9 | 11.3 | CCCN1C(=O)CN(C)C(=O)[C@@H]2[C@@H](C)CN2C(=O)[C@H]([C@@H](C)CC)NC(=O)[C@H](CC(C)C)N(C)C(=O)C[C@@H](C(=O)N2CCOCC2)N(C)C(=O)[C@H](C2CCCC2)N(C)C(=O)C2(CCCC2)NC(=O)[C@@H]2CCCN2C(=O)[C@H](CCc2ccc(C(F)(F)F)c(Cl)c2)NC(=O)CN(C)C(=O)[C@@H]1Cc1ccc(C(F)(F)F)cc1 [PP0258] ([NMeL]I[Aze(3S-Me)][Sar][NPrPhe(4-CF3)][Sar][hPhe(3-Cl-4-CF3)]P[Ac5c][NMeGly(cPent)][NMeD]-Morpholide; lactam N-11) | B (a compound having 3 or more and less than 10 is denoted as B) | C (A compound having a KD ratio of 0.1 or more and less than 3 is denoted as C)
10 | 6.7 | CCCN1C(=O)[C@@H]2CCN2C(=O)[C@H]2N(CC2(C)C)C(=O)[C@H]([C@@H](C)CC)NC(=O)[C@H](CC(C)C)N(C)C(=O)C[C@@H](C(=O)N2CCOCC2)N(C)C(=O)[C@H](C2CCCC2)N(C)C(=O)C2(CCCC2)NC(=O)[C@@H]2CCCN2C(=O)[C@H](CCc2ccc(C(F)(F)F)c(Cl)c2)NC(=O)CN(C)C(=O)[C@@H]1Cc1ccc(C(F)(F)F)cc1 [PP0277] ([NMeL]I[X44][Aze][NPrPhe(4-CF3)][Sar][hPhe(3-Cl-4-CF3)]P[Ac5c][NMeGly(cPent)][NMeD]-Morpholide; lactam N-11) | C (A compound having a KD ratio of 0.1 or more and less than 3 is denoted as C) | C (A compound having a KD ratio of 0.1 or more and less than 3 is denoted as C)
11 | 74.3 | CCCN1C(=O)CN(C)C(=O)CN(CC)C(=O)[C@H]([C@@H](C)CC)NC(=O)[C@H](CC(C)C)N(C)C(=O)C[C@@H](C(=O)N2CCOCC2)N(C)C(=O)[C@H](C2CCCC2)N(C)C(=O)C2(CCCC2)NC(=O)[C@@H]2CCCCN2C(=O)[C@H](CCc2ccc(C(F)(F)F)c(Cl)c2)NC(=O)CN(C)C(=O)[C@@H]1Cc1ccc(C(F)(F)F)cc1 [PP0297] ([NMeL]I[NEtG][Sar][NPrPhe(4-CF3)][Sar][hPhe(3-Cl-4-CF3)][Pip][Ac5c][NMeGly(cPent)][NMeD]-Morpholide; lactam N-11) | B (a compound having 3 or more and less than 10 is denoted as B) | C (A compound having a KD ratio of 0.1 or more and less than 3 is denoted as C)
12 | 126 | CCCN1C(=O)CN(C)C(=O)[C@@H]2CCN2C(=O)[C@H]([C@@H](C)CC)NC(=O)[C@@H]2CCCCCN2C(=O)C[C@@H](C(=O)N2CCOCC2)N(C)C(=O)[C@H](C2CCCC2)N(C)C(=O)C2(CCCC2)NC(=O)[C@@H]2CCCN2C(=O)[C@H](CCc2ccc(C(F)(F)F)c(Cl)c2)NC(=O)CN(C)C(=O)[C@@H]1Cc1ccc(C(F)(F)F)cc1 [PP0302] ([hPip]I[Aze][Sar][NPrPhe(4-CF3)][Sar][hPhe(3-Cl-4-CF3)]P[Ac5c][NMeGly(cPent)][NMeD]-Morpholide; lactam N-11) | B (a compound having 3 or more and less than 10 is denoted as B) | C (A compound having a KD ratio of 0.1 or more and less than 3 is denoted as C)
